The record followed here is PubChem BioAssay AID179 (DTP/NCI, 2004).

The test system of this test is CEM cells HIV-1 protection, formazan growth assay. The test is described as follows: NCI AIDS Antiviral Assay. To be noted: for IC50: measured here: growth of uninfected CEM cells. Put shortly:
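Screen of anti-HIV-1 activity in human CEM cells using a formazan-based growth measurement at five drug concentrations. Hits with 50% or greater protection were repeated, and confirmation required reproducible complete protection.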

The structures appear in SMILES notation. Active and inactive are the calls of the source.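 Rule for the calls: active = compounds giving half or more protection of infected cells from virus-caused growth loss, again on retest; inactive = the rest.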

`COc1ccc2[nH]c3c(C)c4ccnc(NCCCN(C)CCCNc5ccc6nnn7c8ccccc8c(=O)c5c67)c4c(C)c3c2c1`: the EC50 was over 0.1 µM and the IC50 is 0.0316 µM.

Take `COC(=O)C(=O)C(C(=O)C(=O)Nc1ccc(C)cc1C)c1nc2ccccc2[nH]c1=O` (stereo not given): the EC50 was over 23.4 µM and the half-inhibitory concentration (IC50) is over 23.4 µM.

Regarding `CCOC(=O)N1CCN(Cc2cc(=O)n3cc(C)ccc3n2)CC1`, the EC50 is over 200 µM and the IC50 is over 200 µM.

Consider `Cc1cc(C)c2c(c1)N[S@@](=O)S2`, for which the EC50 is over 13.5 µM and the 50% inhibitory concentration (IC50) is over 13.5 µM.

As for `CCN(CC)CCCNc1ncnc2c1C(c1ccccc1)c1ccccc1-2` (stereo not given), the EC50 was over 676 µM and the half-inhibitory concentration (IC50) came out at 33.1 µM.

On to `O=S(=O)(OCCSS(=O)(=O)c1ccccc1)c1ccccc1`, for which the EC50 is over 437 µM and the half-maximal inhibitory concentration (IC50) is over 437 µM.

For `O=C(Nc1ccc(Br)cc1)c1cc(Br)ccc1O`, the EC50 is over 200 µM and the half-maximal inhibitory concentration (IC50) stood at 4.37 µM.

Regarding `COC1CCN(N(C)C)O1` (stereo not given), the EC50 was over 200 µM and the 50% inhibitory concentration (IC50) is over 200 µM.

Regarding `N#CCCN(CCN(C(=O)Nc1ccccc1)c1ccccc1)C(=O)Nc1ccccc1`, the EC50 is over 200 µM and the 50% inhibitory concentration (IC50) came out at 55 µM.

As to `O=c1[nH]nc(-c2ccc([N+](=O)[O-])cc2)n1/N=C/c1ccc([N+](=O)[O-])cc1`, the EC50 was over 200 µM and the IC50 was determined as 132 µM.

Consider `Nc1cnn2cnnc2c1`, for which the EC50 was over 200 µM and the IC50 is over 200 µM.

As for `Nc1ccc([N+](=O)[O-])cc1N=C/C=C/c1ccccc1`, the EC50 is over 10.2 µM and the IC50 is over 10.2 µM.

As for `O=[N+]([O-])c1ccccc1S(=O)(=O)N1CCCc2cc(Cl)ccc21`, the EC50 is over 200 µM and the IC50 came out at 16.6 µM.

As for `O=C1CSC(/C(=N/Nc2ccccc2)c2nc3ccccc3[nH]2)=N1`, the EC50 is over 15.5 µM and the IC50 was over 15.5 µM.

With `CC1=CCN(C2CC(C)C(=O)N2)C1=O` (stereo not given), the outcome was inactive.

For the compound `CSC12c3cc(C)n(-c4ccc(I)cc4)c3CC(C)(C)CN1C(=O)C2Oc1ccccc1` (stereo not given), the EC50 is over 200 µM and the concentration for half-maximal inhibition (IC50) was 75.9 µM.

With `CCOC(=O)C(=O)Cc1cc(=O)n(C)c2ccccc12`, the EC50 is over 200 µM and the IC50 amounted to 170 µM.

With `Cc1c(C#N)c(N)[nH]c(=S)c1C#N`, the EC50 is over 200 µM and the IC50 is over 200 µM.

As to `O=C1c2ccccc2C(=O)N1n1c(Cc2ccc(Cl)cc2)n[nH]c1=O`, the EC50 was over 200 µM and the IC50 is over 200 µM.

`COc1cc(/C=C2\CCOC2=O)ccc1OCc1ccccc1`: the EC50 was over 32.4 µM and the IC50 is over 32.4 µM.

Consider `CCCC(=O)n1[nH]c(=O)n(C(C)(C)C)c1=O`, for which the EC50 was over 200 µM and the half-maximal inhibitory concentration (IC50) is over 200 µM.

Regarding `Cc1ccc(S(=O)(=O)N/N=C/C(=C/c2ccc(Cl)cc2)CC(/C=N/NS(=O)(=O)c2ccc(C)cc2)=C\c2ccc(Cl)cc2)cc1`, the EC50 was over 200 µM and the half-inhibitory concentration (IC50) came out at 3.89 µM.

In the case of `O=C(N=C1[Se]C(=Nc2ccccc2)C(=Nc2ccccc2)N1c1ccccc1)c1ccc([N+](=O)[O-])cc1`, the EC50 is over 200 µM and the IC50 is over 200 µM.

Turning to `COC(=O)CCc1ccc2c(c1)CC1(Cc3ccccc3C1)C2`, the EC50 was over 200 µM and the IC50 came to 107 µM.

With `CC(=O)C1(Cc2cccc3ccccc23)S(=O)(=O)OCCOS1(=O)=O`, the EC50 was over 200 µM and the IC50 amounted to 110 µM.

On to `CC(=O)NNC(=S)/N=C\c1c(O)c2ccccc2oc1=O`, for which the result was inactive.

With `COc1ccc2c(c1)OC[C@@H]1c3ccc(OCc4ccccc4)cc3O[C@H]21`, the EC50 is 46.8 µM and the half-inhibitory concentration (IC50) was over 200 µM.

Turning to `CCOC(=O)[C@H]1[C@@H]2CCCC[C@@]23C(Cl)(Cl)[C@@]32C[C@]1(C(=O)OCC)CCC(=O)O2`, the outcome was inactive.

As to `CC1CCC(=O)C(C(O)CC2CC(=O)N(c3ccccc3)C(=O)C2)C1` (stereo not given), the EC50 was over 200 µM and the IC50 was over 200 µM.

The EC50 is the concentration giving half of the maximal effect. For orientation: IC50 means the concentration that inhibits the measured activity by half. Higher therefore signals a need for much substance.
